Values quoted from earlier work as cited in patent US8574562B2, “Microemulsion pharmaceutical composition comprising a macrolide immunosuppressant drug” (Novaliq GmbH, priority 2009, dated 2013).

How the values were obtained:
[1] = relative to ciclosporin
[2] = relative to ciclosporin; remark: listed apart in the source
[3] = methanol, ethanol, acetone, chloroform, ethyl acetate, diethyl ether

solubility in organic solvents [3]: soluble
SMILES: C=CC[C@@H]1/C=C(\C)C[C@H](C)C[C@H](OC)[C@H]2O[C@@](O)(C(=O)C(=O)N3CCCC[C@H]3C(=O)O[C@H](/C(C)=C/[C@@H]3CC[C@@H](O)[C@H](OC)C3)[C@H](C)[C@@H](O)CC1=O)[C@H](C)C[C@@H]2OC [Tacrolimus]
immunosuppressive activity in vivo, higher than that of ciclosporin [1]: 10-20 times
immunosuppressive activity in vitro, higher than that of ciclosporin [2]: 50-100 times
